Experimental data taken from US7521207B2, “Rhesus monkey Nur77” (Merck & Co., Inc., priority 2005, dated 2009).

Legend:
[1] = system: Nur77 expression in 22RV1 cells; assay: Expression of Nur77 in prostrate cancer cells (FIG. 5); assay type: cell-based; conditions: prostrate cancer cells (22RV1 cells), to various extents
[2] = system: Nur77 expression in the seminal vesicles; conditions: orchiectomized (ORX) rats, FIG. 6, to various extents

C[C@]12CCC(=O)C[C@@H]1CC[C@@H]1[C@@H]2CC[C@]2(C)[C@@H](O)CC[C@@H]12 [DHT, dihydrotestosterone]
expression of Nur77 [1]: can be controlled
expression of Nur77 [2]: can be modulated
